Assay results: patent publication US12662458B2, “Solid forms of a compound” (Denali Therapeutics Inc., priority 2020, dated 2026)
In brackets after ≈: the same amount, converted by molar mass.

Assays:
[1] = Plasma PK in monkeys, nanosuspension; format: in vivo; conditions: nanosuspension in deionized water, single oral 25 mg/kg
Experimental: Non-naïve male cynomolgus monkeys were used in this study with at least a 7-day washout period prior to dosing Animals were administered a nanosuspension of Form C as a single oral administration at 25 mg/kg. The nanosuspension was prepared by suspending nano-milled Form C in deionized water (5 mg/mL) to obtain an opaque homogenous suspension. Blood samples were collected at 0.25, 0.5, 1, 2, 4, 8, 24, 48, and 72 hours post-dose. Concentrations of Compound I in plasma samples were determined by LC/MS/MS.
A separate study was performed for a nanosuspension of Form A.

[2] = Slurry interconversion of Form A and Form C; format: physicochemical
Experimental: Form A slurry converts to Form C in the presence of Form C seed. For example, Form A (10 mg) and Form C (10 mg) were stirred in saturated IPA/water and MeCN/water at temperatures ranging from 5-60° C. […] Form A could only be prepared in a location uncontaminated with Form C (e.g., locations where From C had not previously existed).

[3] = Plasma PK in monkeys, powder in capsule; format: in vivo; conditions: single oral 15 mg/kg; for AUC(0-t): read-out: AUC0-24 h
Experimental: Non-naïve male cynomolgus monkeys were used in this study with at least a 7-day washout period prior to dosing Animals were administered micronized Form A, unmicronized Form A, or micronized Form C powder in capsule by single oral administration at 15 mg/kg. The capsules were prepared according to the animals' body weights on dosing day. Blood samples were collected at 0.25, 0.5, 1, 2, 4, 8, 24, 48, and 72 hours post-dose.

[4] = Plasma PK in rats, nanosuspension; format: in vivo; conditions: nanosuspension in deionized water, single oral 25 mg/kg
Experimental: Wistar Han rats were administered a nanosuspension of Form A or Form C as a single oral administration at 25 mg/kg. The nanosuspensions were prepared by suspending nano-milled Form A or Form C in deionized water (2.5 mg/mL) to obtain opaque homogenous suspensions. Blood samples were collected at 0.25, 0.5, 1, 2, 4, 8, 24, 48, and 72 hours post-dose. Concentrations of Compound I in plasma samples were determined by LC/MS/MS.

[5] = Biorelevant media solubility of Forms A and C; format: physicochemical; conditions: for Solubility / Final XRPD: 37° C.
Experimental: Biorelevant media solubility of Forms A and C were studied in water, SGF, FaSSIF, and FeSSIF at 37° C. 10-20 mg of Form A or C was weighed into 2-3 mL glass vials and media was added to achieve a solids loading of ˜5 mg/mL. Each slurry was magnetically agitated at 750-1000 rpm at 37° C., filtered via centrifugation, and the supernatant was analyzed by HPLC to determine solubility. In all cases, there was no polymorphic form change observed by XRPD analysis of the filtered solids.

[6] = Solid form stability on storage; format: physicochemical; conditions: for solid form stability (form change, weight gain, purity changes): 60° C., up to 4 weeks
Experimental: To evaluate the solid form stability, Forms A and C were stored under 25° C./60% RH (open), 40° C./75% RH (open), and 60° C. for up to 4 weeks. Samples were analyzed by XRPD, TGA, DSC, and HPLC purity.

[7] = Dynamic vapor sorption (hygroscopicity); format: physicochemical; conditions: DVS
Experimental: DVS analysis was carried out using a Surface Measurement System DVS Intrinsic analyzer. The instrument was calibrated with standard weights. Approximately 15-20 mg of sample was loaded into a pan for analysis. The sample was analyzed at 25° C. in 10% relative humidity (RH) steps from 0 to 95% RH (adsorption cycle) and from 95 to 0% RH (desorption cycle). The movement from one step to the next occurred either after satisfying the equilibrium criterion of 0.002% weight change (dm/dt) or, if the equilibrium criterion was not met, after ten hours.

[8] = Storage stability of amorphous Form D; format: physicochemical
Experimental: Form A was kept in an oven at 150° C. until all solids melted. The melt was kept at 150° C. for 5 minutes and was then taken out of the oven and cooled to room temperature.

[9] = male, cynomolgus monkey, po, 15 mg/kg, micronized (d90 5)
[10] = male, cynomolgus monkey, po, 15 mg/kg, unmicronized (d90 43)
[11] = filtered solids after slurry in FaSSIF
[12] = filtered solids after slurry in FeSSIF
[13] = filtered solids after slurry in SGF
[14] = filtered solids after slurry in Water
[15] = 25° C./60% RH (open), 40° C./75% RH (open)
[16] = micronized (d90 5), cynomolgus monkeys

O=C(COc1ccc(Cl)cc1)NC12CC(c3nnc([C@H]4C[C@@H](OC(F)(F)F)C4)o3)(C1)C2 (single isomer, unassigned) [Form A, 2-(4-chlorophenoxy)-N-[3-[5-[cis-3-(trifluoromethoxy)cyclobutyl]-1,3,4-oxadiazol-2-yl]-1-bicyclo[1.1.1]pentanyl]acetamide]
Cmax ([1]; male, cynomolgus monkey, po, 25 mg/kg): 25.4 ± 4.1 µM
AUC(0-t) ([1]; male, cynomolgus monkey, po, 25 mg/kg, read-out: AUC0-24 h): 451 ± 84 µM·h
Tmax ([1]; male, cynomolgus monkey, po, 25 mg/kg, read-out: Tmax): 4 h
Results (solid form after slurry) ([2]; ACN/water (1:2), 5 ° C., 8 day): Form C
Results (solid form after slurry) ([2]; ACN/water (1:2), 22 ° C., 8 day): Form C
Results (solid form after slurry) ([2]; ACN/water (1:2), 60 ° C., 6 day): Form C
solid form after slurry by XRPD and DSC ([2]; Form A (10 mg) and Form C (10 mg) in saturated IPA/water and MeCN/water, 5-60° C., 6-8 days): only Form C was present
Results (solid form after slurry) ([2]; IPA/water (1:1), 5 ° C., 8 day): Form C
Results (solid form after slurry) ([2]; IPA/water (1:1), 22 ° C., 8 day): Form C
Results (solid form after slurry) ([2]; IPA/water (1:1), 60 ° C., 6 day): Form C
Cmax [3, 9]: 9.8 ± 4.1 µM
AUC(0-t) [3, 9]: 154 ± 44 µM·h
Tmax ([3]; male, cynomolgus monkey, po, 15 mg/kg, micronized (d90 5), read-out: Tmax): 8 h
Cmax [3, 10]: 5.6 ± 0.4 µM
AUC(0-t) [3, 10]: 92 ± 24 µM·h
Tmax ([3]; male, cynomolgus monkey, po, 15 mg/kg, unmicronized (d90 43), read-out: Tmax): 4 h
Cmax ([4]; Wistar Han, rat, po, 25 mg/kg): 105 ± 8 µM
AUC(0-t) ([4]; Wistar Han, rat, po, 25 mg/kg, read-out: AUC0-48 h): 1700 ± 271 µM·h
Tmax ([4]; rat, Wistar Han rats, read-out: Tmax): 8 h
Solubility ([5]; FaSSIF): 25 µg/mL (≈ 54.6 µM)
Solubility ([5]; FeSSIF): 44 µg/mL (≈ 96.1 µM)
Solubility ([5]; SGF): 46 µg/mL (≈ 100 µM)
Solubility ([5]; Water): 9.7 µg/mL (≈ 21.2 µM)
Final XRPD [5, 11]: Form A
Final XRPD [5, 12]: Form A
Final XRPD [5, 13]: Form A
Final XRPD [5, 14]: Form A
aqueous solubility ([5]; listed as Compound I Form A): about 9.7 microgram/mL
DSC endotherm ([6]; 25° C./60% RH (open), 1 week): 125.6 °C
HPLC purity ([6]; 25° C./60% RH (open), 1 week): 99.3%
TGA loss (%, to 150° C.) ([6]; 25° C./60% RH (open), 1 week): 1.8%
XRPD ([6]; 25° C./60% RH (open), 1 week): Form A
DSC endotherm ([6]; 25° C./60% RH (open), 4 week): 125.3 °C
HPLC purity ([6]; 25° C./60% RH (open), 4 week): 98.8%
TGA loss (%, to 150° C.) ([6]; 25° C./60% RH (open), 4 week): 0.6%
XRPD ([6]; 25° C./60% RH (open), 4 week): Form A
solid form stability (form change, weight gain, purity changes) [6, 15]: No form change, weight gain, or purity changes
DSC endotherm ([6]; 40° C./75% RH (open), 1 week): 125.4 °C
HPLC purity ([6]; 40° C./75% RH (open), 1 week): 99.3%
TGA loss (%, to 150° C.) ([6]; 40° C./75% RH (open), 1 week): 0.9%
XRPD ([6]; 40° C./75% RH (open), 1 week): Form A
DSC endotherm ([6]; 40° C./75% RH (open), 4 week): 125.1 °C
HPLC purity ([6]; 40° C./75% RH (open), 4 week): 98.7%
TGA loss (%, to 150° C.) ([6]; 40° C./75% RH (open), 4 week): 0.7%
XRPD ([6]; 40° C./75% RH (open), 4 week): Form A
DSC endotherm ([6]; 60° C. (open), 1 week): 125.2 °C
HPLC purity ([6]; 60° C. (open), 1 week): 99.3%
TGA loss (%, to 150° C.) ([6]; 60° C. (open), 1 week): 0.7%
XRPD ([6]; 60° C. (open), 1 week): Form A
DSC endotherm ([6]; 60° C. (open), 4 week): 125.1 °C
HPLC purity ([6]; 60° C. (open), 4 week): 98.8%
TGA loss (%, to 150° C.) ([6]; 60° C. (open), 4 week): 0.6%
XRPD ([6]; 60° C. (open), 4 week): Form A
DSC endotherm ([6]; Initial): 125.0 °C
HPLC purity ([6]; Initial): 98.5%
TGA loss (%, to 150° C.) ([6]; Initial): 0.4%
XRPD ([6]; Initial): Form A
Hygroscopicity [7]: Non-hygroscopic
weight change / form change after exposure to humidity [7]: no form change

O=C(COc1ccc(Cl)cc1)NC12CC(c3nnc([C@H]4C[C@@H](OC(F)(F)F)C4)o3)(C1)C2 (single isomer, unassigned) [Form C, 2-(4-chlorophenoxy)-N-[3-[5-[cis-3-(trifluoromethoxy)cyclobutyl]-1,3,4-oxadiazol-2-yl]-1-bicyclo[1.1.1]pentanyl]acetamide]
AUC0-24 h ([1]; cynomolgus monkeys): 367 ± 99 μM-hr
Cmax ([1]; cynomolgus monkeys): 21.7 ± 4.2 µM
Tmax ([1]; cynomolgus monkeys): 8 h
AUC0-24 h [3, 16]: 117 ± 39 μM-hr
Cmax [3, 16]: 7.6 ± 3.4 µM
Tmax [3, 16]: 4 h
Tmax ([4]; Wistar Han rats): 8 h
AUC0-48 h ([4]; Wistar Han rats, 25 mg/kg): 1658 ± 211 μM-hr
Cmax ([4]; Wistar Han rats, 25 mg/kg): 101 ± 10 µM
Solubility ([5]; FaSSIF): 9.65 µg/mL (≈ 21.1 µM)
Solubility ([5]; FeSSIF): 16.14 µg/mL (≈ 35.3 µM)
Solubility ([5]; SGF): 0.56 µg/mL (≈ 1.22 µM)
Solubility ([5]; Water): 1.02 µg/mL (≈ 2.23 µM)
Final XRPD [5, 11]: Form C
Final XRPD [5, 12]: Form C
Final XRPD [5, 13]: Form C
Final XRPD [5, 14]: Form C
aqueous solubility ([5]; listed as Compound I Form C): about 1.02 micrograms/mL
DSC endotherm ([6]; 25° C./60% RH (open), 2 week): 133.7 °C
HPLC purity ([6]; 25° C./60% RH (open), 2 week): 99.7%
TGA loss (%, to 150° C.) ([6]; 25° C./60% RH (open), 2 week): 0.4%
XRPD ([6]; 25° C./60% RH (open), 2 week): Form C
DSC endotherm ([6]; 25° C./60% RH (open), 4 week): 133.3 °C
HPLC purity ([6]; 25° C./60% RH (open), 4 week): 99.7%
TGA loss (%, to 150° C.) ([6]; 25° C./60% RH (open), 4 week): 0.3%
XRPD ([6]; 25° C./60% RH (open), 4 week): Form C
solid form stability (form change, weight gain, purity changes) [6, 15]: No form change, weight gain, or purity changes
DSC endotherm ([6]; 40° C./75% RH (open), 2 week): 133.6 °C
HPLC purity ([6]; 40° C./75% RH (open), 2 week): 99.7%
TGA loss (%, to 150° C.) ([6]; 40° C./75% RH (open), 2 week): 0.2%
XRPD ([6]; 40° C./75% RH (open), 2 week): Form C
DSC endotherm ([6]; 40° C./75% RH (open), 4 week): 133.3 °C
HPLC purity ([6]; 40° C./75% RH (open), 4 week): 99.8%
TGA loss (%, to 150° C.) ([6]; 40° C./75% RH (open), 4 week): 0.2%
XRPD ([6]; 40° C./75% RH (open), 4 week): Form C
DSC endotherm ([6]; 60° C. (closed), 2 week): 133.6 °C
HPLC purity ([6]; 60° C. (closed), 2 week): 99.8%
TGA loss (%, to 150° C.) ([6]; 60° C. (closed), 2 week): 0.3%
XRPD ([6]; 60° C. (closed), 2 week): Form C
DSC endotherm ([6]; 60° C. (closed), 4 week): 133.0 °C
HPLC purity ([6]; 60° C. (closed), 4 week): 99.8%
TGA loss (%, to 150° C.) ([6]; 60° C. (closed), 4 week): 0.2%
XRPD ([6]; 60° C. (closed), 4 week): Form C
DSC endotherm ([6]; Initial): 133.1 °C
HPLC purity ([6]; Initial): 99.8%
TGA loss (%, to 150° C.) ([6]; Initial): 0.1%
XRPD ([6]; Initial): Form C
Hygroscopicity [7]: Non-hygroscopic
weight change / form change after exposure to humidity [7]: no weight change and no polymorphic change

O=C(COc1ccc(Cl)cc1)NC12CC(c3nnc([C@H]4C[C@@H](OC(F)(F)F)C4)o3)(C1)C2 [Form D, 2-(4-chlorophenoxy)-N-[3-[5-[cis-3-(trifluoromethoxy)cyclobutyl]-1,3,4-oxadiazol-2-yl]-1-bicyclo[1.1.1]pentanyl]acetamide]
storage stability of form ([8]; standing at room temperature or higher (25° C.-50° C.) for several days): convert to Form C
storage stability of form ([8]; stored at 5° C.): stable for 7 days
storage stability of form ([8]; stored at RT-60° C., 7 days): converted to Form C
